Laboratory results as given in ChEMBL document CHEMBL1143566, “Discovery of a potent and selective inhibitor of cyclin-dependent kinase 4/6” (J Med Chem, 2005).

Assays:
[1] = Inhibition of Cyclin dependent kinase 2-cyclinA
[2] = target: T1, Cyclin-dependent kinase 4/cyclin D (Homo sapiens, UniProt P11802)
Description: Inhibition of Cyclin-dependent kinase 4-cyclinD

[3] = target: Cyclin-dependent kinase 2/cyclin A (Homo sapiens, UniProt P24941)
Description: Inhibition of Cyclin dependent kinase 2-cyclin A

MDA-MB-435 [4] = experiment: Inhibitory concentration was measured by the incorporation of [14C]-thymidine in (human breast carcinoma) MDA-MB-435 cell line; assay type: functional, cell-based
MDA-MB-435 [5] = experiment: Inhibitory concentration was measured by the incorporation of [14C]thymidine in (human breast carcinoma) MDA-MB-435; assay type: functional, cell-based
MDA-MB-468 [6] = experiment: Inhibitory concentration was measured by the incorporation of [14C]thymidine in (human breast carcinoma) MDA-MB-468 cell line; assay type: functional, cell-based
[7] = target: Fibroblast growth factor receptor (Homo sapiens, UniProt P22607+P11362+P22455+P21802); experiment: Inhibition of Fibroblast growth factor receptor; assay type: protein assay
[8] = target: T1, Cyclin-dependent kinase 4/cyclin D; experiment: Inhibition of [gamma-32P]-ATP binding to Cyclin dependant kinase 4-cyclinD; assay type: protein-complex assay
MDA-MB-435 [9] = experiment: In vitro inhibitory concentration was measured by the incorporation of [14C]thymidine in (human breast carcinoma) MDA-MB-435 cell line; assay type: functional, cell-based
[10] = target: Cyclin-dependent kinase 2/cyclin E (Homo sapiens, UniProt P24941); experiment: Inhibition of Cyclin dependent kinase 2-cyclin E; assay type: protein-complex assay
[11] = Inhibition of PDGF receptor
MDA-MB-468 [12] = experiment: In vitro inhibitory concentration was measured by the incorporation of [14C]thymidine in (human breast carcinoma) MDA-MB-468 cell line; assay type: functional, cell-based

With `O=c1ccc2cnc(Nc3ccccc3)nc2n1C1CCCC1` the IC50 [1] was 0.012 µM.

Compound `COCc1cc2cnc(Nc3ccc(N4CCNCC4)cn3)nc2n(C2CCCC2)c1=O` has an IC50 [2] of 0.013 µM, an IC50 [3] of 3.8 µM and an IC50 (MDA-MB-435 [4]) of 0.33 µM.

`Cc1cc2cnc(Nc3ccc(N4CCNCC4)cn3)nc2n(C2CCCC2)c1=O` showed an IC50 (MDA-MB-435 [4]) of 0.29 µM.

With `CC(=O)c1cc2cnc(Nc3ccc(N4CCNCC4)cn3)nc2n(C2CCCC2)c1=O` the IC50 (MDA-MB-435 [5]) was 2.77 µM.

For `COCCN(CCOC)c1ccc(Nc2ncc3c(C)c(C(C)=O)c(=O)n(C4CCCC4)c3n2)nc1`, the IC50 [2] was 0.051 µM and the IC50 [3] was 2.05 µM.

Work on `COCCOCc1cc2cnc(Nc3ccc(N4CCNCC4)cn3)nc2n(C2CCCC2)c1=O` yielded an IC50 (MDA-MB-435 [4]) of 2.15 µM.

`CCOC(=O)c1c(C)c2cnc(Nc3ccc(N4CCNCC4)cn3)nc2n(C2CCCC2)c1=O` gave an IC50 [2] of 0.049 µM.

Work on `Cc1c(Br)c(=O)n(C2CCCC2)c2nc(Nc3ccc(N4CC(C)NC(C)C4)cn3)ncc12` (stereo unspecified) yielded an IC50 (MDA-MB-435 [5]) of 0.57 µM.

For `CCc1cc2cnc(Nc3ccc(N4CCNCC4)cn3)nc2n(C2CCCC2)c1=O`, the IC50 [2] was 0.022 µM, the IC50 [3] was greater than 5 µM and the IC50 (MDA-MB-435 [4]) was 1.08 µM.

In the case of `O=c1c(Br)cc2cnc(Nc3ccc(N4CCNCC4)cc3)nc2n1C1CCCC1`, the IC50 (MDA-MB-435 [4]) is reported as 0.02 µM, the IC50 (MDA-MB-468 [6]) is reported as 0.6 µM and the IC50 ([7]; read-out: IC50) is reported as 0.08 µM.

`CCOCCOc1cc2cnc(Nc3ccc(N4CCNCC4)cn3)nc2n(C2CCCC2)c1=O` gave an IC50 [8] of 0.037 µM.

Compound `CC(=O)c1c(C)c2cnc(Nc3ccc(N4CCN(C)CC4)cn3)nc2n(C2CCCC2)c1=O` has an IC50 (MDA-MB-435 [4]) of 0.325 µM.

Compound `Cc1c(Br)c(=O)n(C2CCCC2)c2nc(Nc3ccc(N4CCC(O)CC4)cn3)ncc12` has an IC50 (MDA-MB-435 [5]) of 1.4 µM.

For `CC(=O)c1c(C)c2cnc(Nc3ccc(N4C(C)COCC4C)cn3)nc2n(C2CCCC2)c1=O` (stereo unspecified), the IC50 [2] was 0.03 µM, the IC50 (MDA-MB-435 [9]) was 2.04 µM and the IC50 [3] was greater than 5 µM.

Work on `O=c1c(Br)cc2cnc(Nc3ccc(N4CCNCC4)cn3)nc2n1C1CCCC1` yielded an IC50 [10] greater than 5 µM, an IC50 [11] greater than 5 µM and an IC50 [3] greater than 5 µM. The IC50 (MDA-MB-435 [4]) was 0.09 µM, the IC50 (MDA-MB-468 [6]) was greater than 3 µM and the IC50 [7] was greater than 5 µM.

Work on `CC(=O)c1c(C)c2cnc(Nc3ccc(N4CC(C)NC(C)C4)cn3)nc2n(C2CCCC2)c1=O` (stereo unspecified) yielded an IC50 (MDA-MB-435 [5]) of 0.57 µM.

With `O=c1c(CO)cc2cnc(Nc3ccc(N4CCNCC4)cn3)nc2n1C1CCCC1` the IC50 (MDA-MB-435 [4]) was 0.56 µM.

Work on `CC(=O)c1c(C)c2cnc(Nc3ccc(N4CCCCC4)cn3)nc2n(C2CCCC2)c1=O` yielded an IC50 (MDA-MB-435 [5]) of 1.93 µM.

With `CC(=O)c1c(C)c2cnc(Nc3ccc(N4CCCNCC4)cn3)nc2n(C2CCCC2)c1=O` the IC50 (MDA-MB-435 [4]) was 0.07 µM.

With `CC(=O)c1c(C)c2cnc(Nc3ccc(N4CCC(N)C4)cn3)nc2n(C2CCCC2)c1=O` (stereo unspecified) the IC50 (MDA-MB-435 [4]) was 0.34 µM.

Work on `Cc1c(Br)c(=O)n(C2CCCC2)c2nc(Nc3ccccn3)ncc12` yielded an IC50 [2] greater than 5 µM.

`O=c1c(F)cc2cnc(Nc3ccc(N4CCNCC4)cn3)nc2n1C1CCCC1` showed an IC50 (MDA-MB-435 [4]) of 1.1 µM.

Compound `CC(=O)c1c(C)c2cnc(Nc3ccc(N4CCNCC4)cc3)nc2n(C2CCCC2)c1=O` has an IC50 (MDA-MB-468 [12]) of 1.1 µM, an IC50 (MDA-MB-435 [9]) of 0.03 µM and an IC50 [3] of 0.23 µM.

Work on `Nc1cc2cnc(Nc3ccc(N4CCNCC4)cn3)nc2n(C2CCCC2)c1=O` yielded an IC50 [2] of 0.019 µM, an IC50 [3] greater than 5 µM and an IC50 (MDA-MB-435 [4]) of 0.19 µM.

In the case of `CC(=O)c1c(C)c2cnc(Nc3ccc(N4CCOCC4)cn3)nc2n(C2CCCC2)c1=O`, the IC50 (MDA-MB-435 [5]) is reported as 0.22 µM.

Compound `CCOCc1cc2cnc(Nc3ccc(N4CCNCC4)cn3)nc2n(C2CCCC2)c1=O` has an IC50 (MDA-MB-435 [4]) of 1 µM.

Work on `CC(=O)c1c(C)c2cnc(Nc3ccc(N4CCNC(C)(C)C4)cn3)nc2n(C2CCCC2)c1=O` yielded an IC50 (MDA-MB-435 [5]) of 0.42 µM.

`CC(=O)c1c(C)c2cnc(Nc3ccc(N4CCC(O)CC4)cn3)nc2n(C2CCCC2)c1=O` gave an IC50 (MDA-MB-435 [4]) of 0.2 µM.

`CC(C)n1c(=O)ccc2cnc(Nc3ccc(N4CCNCC4)cn3)nc21` showed an IC50 [2] greater than 5 µM.

For `Cc1c(Br)c(=O)n(C2CCCC2)c2nc(Nc3ccc(N4CCCNCC4)cn3)ncc12`, the IC50 [2] was greater than 5 µM and the IC50 [3] was greater than 5 µM.

In the case of `CC(=O)c1c(C)c2cnc(Nc3ccc(N4CCNCC4)cn3)nc2n(C2CCCC2)c1=O` [PALBOCICLIB], the IC50 (MDA-MB-435 [4]) is reported as 0.16 µM and the IC50 (MDA-MB-468 [6]) is reported as greater than 3 µM.
